From patent US8133491B1, “Compositions and methods for treatment of hyperplastic disorders” (priority 2009, dated 2012)

Legend:
ventral prostate [1] = test: PCNA stain for cellular proliferation in prostate sections; design: species or system Sprague-Dawley rats; settings: rat, in vivo
Protocol: (§1) The fixed prostates were embedded in paraffin and sectioned at a thickness of 4 microns. Sections were stained with hematoxylin and eosin and analyzed for morphology. Immunohistochemical analysis was performed on prostate sections for evidence of apoptosis with TUNEL stain (terminal deoxynucleotidyl-mediated deoxyuridine triphosphate nick end labeling) using a commercially available kit (GenScript Corporation, Piscataway, N.J.), and for cellular proliferation with PCNA stain (proliferating cell nuclear antigen) using a commercially available kit (Invitrogen Corporation, Camarillo, Calif.). A stained slide from each animal was randomly assigned a number in a blind fashion. Under 400× magnification, four random areas of the ventral prostate from each animal were examined and the total numbers of stained and unstained cells were counted in the entire field. This was done for both TUNEL and PCNA stained slides for each animal. The mean number of stained and unstained cells was determined for each animal.

prostate [2] = test: Histology (hematoxylin and eosin) of injected rat prostates; design: species or system Sprague-Dawley rats; settings: in vivo
Protocol: (§2) Rats were anesthetized with isoflurane gas. The hair was shaved and the incision region was scrubbed with Betadine. A lower abdominal midline incision was made providing exposure to the bladder and prostate. 0.1 mL of toxin or saline was injected into each right and left ventral lobe using a 30-gauge needle. The abdominal wall and skin were then closed in two layers. After 2 weeks the animals were sacrificed by an overdose of sodium Pentobarbital (200 mg/kg i.p.) The prostates were removed en bloc along with the bladder and urethra. The prostates were then carefully dissected from the bladder neck and urethra, weighed and fixed in 10% phosphate buffered formalin.
The fixed prostates were embedded in paraffin and sectioned at a thickness of 4 microns. Sections were stained with hematoxylin and eosin and analyzed for morphology. […] Under 400× magnification, four random areas of the ventral prostate from each animal were examined and the total numbers of stained and unstained cells were counted in the entire field. […] The mean number of stained and unstained cells was determined for each animal.

prostate [3] = test: Intraprostatic injection in rats: prostate weight / size; design: species or system Sprague-Dawley rats; settings: rat, in vivo
[4] = Body weight and complications after intraprostatic injection; design: species or system Sprague-Dawley rats; settings: rat, in vivo
Description: Eighteen adult male Sprague-Dawley rats (420-560 g) were used in this study. The animals were housed in the animal care center under controlled lighting conditions (lights on 6 AM-6 PM), with food and water always available. The animals were monitored for behavior, food and water intake, and weight. Subsequent experiments were approved by the University of Toledo's Institutional Animal Care and Use Committee.
as §2

prostate [5] = settings: rat, in vivo; cited from earlier work
ventral prostate [6] = test: TUNEL stain for apoptosis in prostate sections; design: species or system Sprague-Dawley rats; settings: rat, in vivo
Protocol: as §1

Botulinum toxin type A [BTA]
PCNA Assay # of Proliferating Cells Mean (ventral prostate [1]): 26.2 | cellular proliferation, PCNA staining (in words) (ventral prostate [1]): significant increase in cellular proliferation | histology of prostate (in words) (prostate [2]): prostatic atrophy of the glandular component with flattening of the epithelial lining | Prostate Wt (grams) Mean (prostate [3]): 2.627 grams | Prostate Wt /100 g Body Wt Mean (prostate [3]): 0.586 | prostate size / weight (in words) (prostate [3]): did not show a statistically significant decrease in prostatic weight | 2 wks Post-Injection Wt (grams) Mean [4]: 449 grams | Change in Body Weight Mean [4]: −51.667 | Pre-Injection Wt (grams) Mean [4]: 501 grams | body weight (in words) [4]: significant loss in body weight | prostatic weight (Doggweiler et al.) (prostate [5]): decrease in prostatic weight | TUNEL Assay # of Apoptotic Cells Mean (ventral prostate [6]): 211.1 | number of apoptotic cells, TUNEL staining (in words) (ventral prostate [6]): significant increase in the number of apoptotic cells
